Reference: paper PMC9157728, “Albumin Binder–Conjugated Fibroblast Activation Protein Inhibitor Radiopharmaceuticals for Cancer Therapy” (Journal of Nuclear Medicine, 2022)
Where two headings read alike, the source gives them in different places.

Assays:
[1] = biological target: T1, FAP (Homo sapiens, UniProt Q12884); test: Blocking study in vivo with cold ligand; set-up: from tissue; host or cells: tumour in tumour-bearing mice; species or system mice; details: 12 h and 24 h after treatment with cold ligand
T1 sequence (Q12884 1-760): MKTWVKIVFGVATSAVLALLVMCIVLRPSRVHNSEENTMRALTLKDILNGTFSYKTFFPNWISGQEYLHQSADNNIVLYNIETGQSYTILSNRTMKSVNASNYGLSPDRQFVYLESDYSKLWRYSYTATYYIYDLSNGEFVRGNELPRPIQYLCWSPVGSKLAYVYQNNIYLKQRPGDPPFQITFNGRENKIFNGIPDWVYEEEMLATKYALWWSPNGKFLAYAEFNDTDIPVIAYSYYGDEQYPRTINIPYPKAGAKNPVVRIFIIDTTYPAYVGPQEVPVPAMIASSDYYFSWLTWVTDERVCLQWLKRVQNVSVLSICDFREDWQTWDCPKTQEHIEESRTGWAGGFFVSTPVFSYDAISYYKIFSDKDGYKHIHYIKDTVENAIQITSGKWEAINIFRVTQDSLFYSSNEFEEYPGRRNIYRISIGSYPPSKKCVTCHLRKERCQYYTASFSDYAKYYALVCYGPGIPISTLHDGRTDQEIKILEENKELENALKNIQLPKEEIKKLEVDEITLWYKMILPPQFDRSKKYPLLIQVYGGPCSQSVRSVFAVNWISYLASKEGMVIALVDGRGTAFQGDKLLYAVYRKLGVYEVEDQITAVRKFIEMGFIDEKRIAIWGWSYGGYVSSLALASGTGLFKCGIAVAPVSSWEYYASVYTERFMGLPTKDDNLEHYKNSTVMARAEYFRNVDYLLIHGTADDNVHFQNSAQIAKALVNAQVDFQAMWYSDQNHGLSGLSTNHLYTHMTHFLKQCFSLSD

[2] = system: pancreatic cancer PDX tumors; test: Static PET imaging in pancreatic cancer PDX-bearing mice; assay type: in vivo; details: for tumor area under the curve relative to FAPI-04: ^86Y PET tumor SUVmean curve; for peak tumor SUVmean / time of peak tumor SUVmean after injection: ^86Y PET
Method: (§1) All animal care and experimental procedures were performed by following the animal protocols (CCME-LiuZB-2) approved by the ethics committee of Peking University. The mice were from the Beijing Vital River Laboratory Animal Technology Co., Ltd. For cell-line–derived xenograft models, 5 × 10^6 HT-1080-FAP or HT-1080 cells were subcutaneously inoculated into the right shoulder of 6-wk-old female nu/nu-mice. To establish the patient-derived xenograft (PDX) model, tumor specimens were obtained from patients who underwent presurgical ^68Ga-FAPI-04 PET/CT imaging to confirm that the tumor was FAP-positive. After surgical resection, the tumor specimens were immediately placed in ready-to-use fresh tissue preservation solution (TM2701-100) and transported under refrigerated conditions within 2 h. The research protocol was approved by the Institutional Ethics Committee of Peking Union Medical College Hospital (JS-2628). Six-week-old female nonobese diabetic/severe combined immunodeficiency (NOD/SCID) mice were used to establish the PDX models. After being removed from the preservation solution, the tumor specimens were immediately immersed in sterile PBS solution and minced with scissors, and the fragments were then implanted subcutaneously into the left and right shoulders of the mice, which were anesthetized with isoflurane in advance. Engraftment efficiency was determined by ^68Ga-FAPI-04 PET/CT imaging (Supplemental Fig. 21A).
All PET scans were performed on a Mediso nanoScan PET 122S small-animal PET/CT imaging system. For the 60-min dynamic PET scan, 29.6–37.0 MBq of ^68Ga-TEFAPI-06 or ^68Ga-TEFAPI-07 were given to healthy NOD/SCID mice through tail-vein injection. The static PET imaging was performed on mice bearing pancreatic PDX tumors, HT-1080-FAP tumors, and HT-1080 tumors at the indicated time points after intravenous injection of 7.4–11.1 MBq of ^86Y-FAPI-04,^86Y-TEFAPI-06, or ^86Y-TEFAPI-07.

[3] = biological target: T1, FAP; test: Saturation binding assay of ^68Ga-labeled tracers in HT-1080-FAP and HT-1080 cells; set-up: host or cells: HT-1080 human fibrosarcoma cells (HT-1080-FAP)
Method: (§2) The human fibrosarcoma cell line (HT-1080), and the HT-1080 cell line transfected with human FAP gene (HT-1080-FAP, from WuXi AppTec), were cultivated in Eagle minimum essential medium containing 10% fetal bovine serum, 1% antibiotic–antimycotic, and a 4 μg/mL concentration of blasticidin S at 37°C under conditions of 5% carbon dioxide. For competition assays, HT-1080-FAP cells were seeded in 6-well plates and cultivated until they reached about 1.2 × 10^6 cells per well. The cells were incubated simultaneously with unlabeled FAPI-04, TEFAPI-06, or TEFAPI-07 (10^−5–10^−9 M) with ^68Ga-FAPI-04 in 1 mL of fresh medium without fetal bovine serum for 1 h. The medium was removed, and the cells were washed twice with phosphate-buffered saline (PBS). Subsequently, the cells were lysed with 0.5 mL of 1 M NaOH and washed with 0.5 mL of PBS twice, and the NaOH (0.5 mL) and PBS (0.5 mL × 2) were collected to determine the uptake counts. For saturation binding assays, HT-1080-FAP and HT-1080 cells were seeded in 24-well plates and cultivated until they reached about 2 × 10^5 cells per well. ^68Ga-FAPI-04, ^68Ga-TEFAPI-06, or ^68Ga-TEFAPI-07 was diluted to a concentration 0.01–200 nM in fresh medium without fetal bovine serum. The cells were incubated in the above solution for 1 h and then washed twice with PBS. The lysed cells and the PBS for washing were collected to determine the counts.

[4] = biological target: T1, FAP; test: Competition assay against ^68Ga-FAPI-04 in HT-1080-FAP cells; assay type: binding; set-up: host or cells: HT-1080 human fibrosarcoma cells (HT-1080-FAP)
Method: as §2

[5] = system: HT-1080 cells; test: Cellular uptake assay in HT-1080 cells; assay type: cell-based, human; details: HT-1080 cells (FAP-negative)
Method: as §2

[6] = Dynamic PET imaging in healthy NOD/SCID mice (heart/blood signal); assay type: in vivo; details: for time of peak signal in heart after injection: dynamic PET
[7] = system: HT-1080-FAP cells; test: Cellular uptake assay in HT-1080-FAP cells; assay type: cell-based, human
[8] = system: HT-1080-FAP and HT-1080 tumors; test: PET imaging of HT-1080-FAP and HT-1080 tumor-bearing mice; assay type: in vivo; details: ^86Y PET, tumor-bearing nu/nu mice
Method: as §1, with “After being removed from the preservation solution, the tumor specimens were immediately immersed in sterile PBS solution and minced with scissors, and the fragments were then implanted subcutaneously into the left and right shoulders of the mice, which were anesthetized with isoflurane in advance.” left out, “21A). […]” for “21A).”

[9] = ^68Ga-labeled tracer, 0.01-200 nM, 1 h, medium without FBS, read-out: dissociation constant (Kd)
[10] = binding assays in 0.05% human serum albumin, sentence prints 'in the absence of albumin', read-out: dissociation constant, binding assays in 0.05% human serum albumin
[11] = 0.05% human serum albumin, read-out: half-maximal inhibitory concentration in the presence of albumin
[12] = HT-1080-FAP cells, unlabeled ligand vs ^68Ga-FAPI-04, 1 h, medium without FBS, read-out: half-maximal inhibitory concentration (IC50)

Structure (SMILES) | tumor uptake after treatment with cold ligand (blocking) [1] | tumor area under the curve relative to FAPI-04 [2] | Kd [3, 9] | Kd [3, 10] | IC50 [4, 11] | IC50 [4, 12] | decrease of heart signal from 10 to 60 min after injection [6] | decrease of heart signal from 10 to 240 min after injection [6] | decrease of heart signal from 60 to 240 min after injection [6] | time of peak signal in heart after injection [6] | tumor SUVmean at 36 h after injection [2] | peak tumor SUVmean [2] | time of peak tumor SUVmean after injection [2] | cellular uptake in HT-1080 cells [5] | cellular uptake in HT-1080-FAP cells [7] | uptake in HT-1080-FAP tumors relative to HT-1080 tumors [8]
N#C[C@@H]1CC(F)(F)CN1C(=O)CNC(=O)c1ccnc2ccc(OCCCN3CCN(C(=O)[C@H](CCCCNC(=O)CN4CCN(CC(=O)O)CCN(CC(=O)O)CCN(CC(=O)O)CC4)NC(=O)CCCC(=O)NC(CCCCNC(=O)CCCc4ccc(I)cc4)C(=O)O)CC3)cc12 (stereo partly shown) [TEFAPI-06] | tumor uptake decreased | 37.9 fold | 0.0102 ± 0.00256 µM | 0.00437 ± 0.00081 µM | 0.0114 ± 0.00115 µM | 0.0122 ± 0.00065 µM |  |  |  |  |  |  |  |  |  | 
Cc1cc(-c2ccc(NC(=O)CCCC(=O)N[C@@H](CCCCNC(=O)CN3CCN(CC(=O)O)CCN(CC(=O)O)CCN(CC(=O)O)CC3)C(=O)N3CCN(CCCOc4ccc5nccc(C(=O)NCC(=O)N6CC(F)(F)C[C@H]6C#N)c5c4)CC3)c(C)c2)ccc1N=Nc1ccc2c(S(=O)(=O)O)cc(S(=O)(=O)O)c(N)c2c1O [TEFAPI-07] | tumor uptake decreased | 35.5 fold | 0.00781 ± 0.00228 µM | 0.0191 ± 0.00554 µM | 0.0277 ± 0.005 µM | 0.017 ± 0.00143 µM |  |  |  |  |  |  |  |  |  | 
N#C[C@@H]1CC(F)(F)CN1C(=O)CNC(=O)c1ccnc2ccc(OCCCN3CCN(C(=O)[C@H](CCCCNC(=O)CN4CCN(CC(=O)[O-])CCN(CC(=O)[O-])CCN(CC(=O)[O-])CC4)NC(=O)CCCC(=O)NC(CCCCNC(=O)CCCc4ccc(I)cc4)C(=O)O)CC3)cc12.[68Ga+3] (stereo partly shown) [^68Ga-TEFAPI-06] |  |  | 0.0102 ± 0.00256 µM |  |  |  | 35.70% ± 4.74% | 56.18% ± 2.50% | 31.80% ± 1.15% | about 2 min |  |  |  | almost negligible uptake | significant uptake | 
Cc1cc(-c2ccc(NC(=O)CCCC(=O)N[C@@H](CCCCNC(=O)CN3CCN(CC(=O)[O-])CCN(CC(=O)[O-])CCN(CC(=O)[O-])CC3)C(=O)N3CCN(CCCOc4ccc5nccc(C(=O)NCC(=O)N6CC(F)(F)C[C@H]6C#N)c5c4)CC3)c(C)c2)ccc1N=Nc1ccc2c(S(=O)(=O)O)cc(S(=O)(=O)O)c(N)c2c1O.[68Ga+3] [^68Ga-TEFAPI-07] |  |  | 0.00781 ± 0.00228 µM |  |  |  | 23.15% ± 2.16% | 54.28% ± 4.98% | 40.56% ± 5.25% | about 2 min |  |  |  | almost negligible uptake | significant uptake | 

The next lines start with results.

tumor uptake after treatment with cold ligand (blocking) [1] | tumor area under the curve relative to FAPI-04 [2] | Kd [3, 9] | Kd [3, 10] | IC50 [4, 11] | IC50 [4, 12] | decrease of heart signal from 10 to 60 min after injection [6] | decrease of heart signal from 10 to 240 min after injection [6] | decrease of heart signal from 60 to 240 min after injection [6] | time of peak signal in heart after injection [6] | tumor SUVmean at 36 h after injection [2] | peak tumor SUVmean [2] | time of peak tumor SUVmean after injection [2] | Structure (SMILES) | cellular uptake in HT-1080 cells [5] | cellular uptake in HT-1080-FAP cells [7] | uptake in HT-1080-FAP tumors relative to HT-1080 tumors [8]
 |  |  |  |  |  |  |  |  |  | 0.602 | 0.73 | 18 h | N#C[C@@H]1CC(F)(F)CN1C(=O)CNC(=O)c1ccnc2ccc(OCCCN3CCN(C(=O)[C@H](CCCCNC(=O)CN4CCN(CC(=O)[O-])CCN(CC(=O)[O-])CCN(CC(=O)[O-])CC4)NC(=O)CCCC(=O)NC(CCCCNC(=O)CCCc4ccc(I)cc4)C(=O)O)CC3)cc12.[86Y+3] (stereo partly shown) [^86Y-TEFAPI-06] |  |  | 2- to 6 fold
 |  |  |  |  |  |  |  |  |  | 0.606 | 0.81 | 8 h | Cc1cc(-c2ccc(NC(=O)CCCC(=O)N[C@@H](CCCCNC(=O)CN3CCN(CC(=O)[O-])CCN(CC(=O)[O-])CCN(CC(=O)[O-])CC3)C(=O)N3CCN(CCCOc4ccc5nccc(C(=O)NCC(=O)N6CC(F)(F)C[C@H]6C#N)c5c4)CC3)c(C)c2)ccc1N=Nc1ccc2c(S(=O)(=O)O)cc(S(=O)(=O)O)c(N)c2c1O.[86Y+3] [^86Y-TEFAPI-07] |  |  | 2- to 6 fold
